≈ marks a conversion by molar mass, not a printed value.
How the values were obtained:
[1] = tested on: Plasmodium falciparum chloroquine resistant (W2); test: Antimalarial test, tritiated hypoxanthine incorporation, chloroquine resistant clone W2; type: cell-based; details: W2 clone, chloroquine resistant, 1 parasitic cycle (45h), bracket = uncertainty in %, read-out: 50% inhibitory concentration followed by uncertainty about the value expressed in percentage
Procedure: (§1) Screenings of the compound according to the present invention (1f, 1h, 1i) and their isomers (1a, 1c, 1d)on strains of Plasmodium falciparum sensitive (3D7) and chloroquine resistant (W2) were realized.
(§2) The Clones of W2 and 3D7 were grown. […] Melfloquine (MQ) at the same concentrations and chloroquine (CQ) at the concentrations adapted to each clone were used as the Controls. 8 negative controls were distributed on each plate.
(§3) Then, the molecules to be tested were diluted extemporaneously in the above preparation of the plates. The growth medium was deposited after drying plates. The study was initiated when the growth medium was at the ring stage and then stopped after 1 parasitic cycle (45h).
(§4) The activity was calculated by using the Pk-Fit software on all the experimental points obtained for each molecule (except the highest concentration). The results shown in table 5 are expressed in nM and correspond to calculate a 50% inhibitory concentration followed by un certainty about the value expressed in percentage. Table 5. The biological effect of the compounds on Plasmodium falciparum

[2] = tested on: Plasmodium falciparum sensitive (3D7); test: Antimalarial test, tritiated hypoxanthine incorporation, sensitive clone 3D7; type: cell-based; details: 3D7 clone, sensitive, 1 parasitic cycle (45h), bracket = uncertainty in %, read-out: 50% inhibitory concentration followed by uncertainty about the value expressed in percentage
Procedure: as §1, §2, §3, §4

E. coli DSM 1103 = test: Antibacterial test, MIC by CLSI broth dilution; type: cell-based; details: 18 to 24 h at 37°C, Mueller-Hinton
Procedure: (§5) The minimum inhibitory concentrations (MICs) were determined according to the recommendations of the Clinical and Laboratory Standards Institute (CLSI)^[27]. […] After incubation for 18 to 24 h (48 h for Enterococcus faecalis) at 37°C, the MIC was determined as the product concentration of the first well with no visual signs of bacterial growth (no disorder in the well). […] Table6. The antibacterial effects of the compounds

P. aeruginosa DSM 1117 = test: Antibacterial test, MIC by CLSI broth dilution; type: cell-based; details: 18 to 24 h at 37°C, Mueller-Hinton
Procedure: as §5

S. aureus CIP 103429 = test: Antibacterial test, MIC by CLSI broth dilution; type: cell-based; details: 18 to 24 h at 37°C, Mueller-Hinton
Procedure: as §5

E. faecalis CIP 103214 = test: Antibacterial test, MIC by CLSI broth dilution; type: cell-based, Enterococcus faecalis; details: 48 h at 37°C, Mueller-Hinton
Procedure: as §5

SAAM 12 = test: Antibacterial test, MIC by CLSI broth dilution; type: cell-based, Staphylococcus aureus; details: SAAM 12, clinical strain resistant to methicillin; 18 to 24 h at 37°C
Procedure: as §5

SAAM 27 = test: Antibacterial test, MIC by CLSI broth dilution; type: cell-based, Staphylococcus aureus; details: SAAM 27, clinical strain resistant to methicillin; 18 to 24 h at 37°C
Procedure: as §5

SAAM 51 = test: Antibacterial test, MIC by CLSI broth dilution; type: cell-based, Staphylococcus aureus; details: SAAM 51, clinical strain resistant to methicillin; 18 to 24 h at 37°C
Procedure: as §5

SAAM 64 = test: Antibacterial test, MIC by CLSI broth dilution; type: cell-based, Staphylococcus aureus; details: SAAM 64, clinical strain resistant to methicillin; 18 to 24 h at 37°C
Procedure: as §5

SAAM 69 = test: Antibacterial test, MIC by CLSI broth dilution; type: cell-based, Staphylococcus aureus; details: SAAM 69, clinical strain resistant to methicillin; 18 to 24 h at 37°C
Procedure: as §5

SAAM 86 = test: Antibacterial test, MIC by CLSI broth dilution; type: cell-based, Staphylococcus aureus; details: SAAM 86, clinical strain resistant to methicillin; 18 to 24 h at 37°C
Procedure: as §5

SAAM 95 = test: Antibacterial test, MIC by CLSI broth dilution; type: cell-based, Staphylococcus aureus; details: SAAM 95, clinical strain resistant to methicillin; 18 to 24 h at 37°C
Procedure: as §5

SAAM 98 = test: Antibacterial test, MIC by CLSI broth dilution; type: cell-based, Staphylococcus aureus; details: SAAM 98, clinical strain resistant to methicillin; 18 to 24 h at 37°C
Procedure: as §5

[3] = tested on: Sierra Leone and Indochina P. falciparum strains; details: ratio of IC50 values against Sierra Leone and Indochina P. falciparum strains; cited from earlier work
CNS adenosine receptors = details: result in words, from literature; cited from earlier work

SMILES: O[C@H](CNCc1ccccc1)c1cc(C(F)(F)F)nc2c(C(F)(F)F)cccc12 [Compound 1f, (S)-2-(benzylamino)-1-(2,8-bis(trifluoromethyl)quinolin-4-yl)ethanol]
- IC50 [1]: 19.1 nM
- IC50 [2]: 35.1 nM
- minimum inhibitory concentrations (MICs) (E. coli DSM 1103): >128 µg/mL
- minimum inhibitory concentrations (MICs) (P. aeruginosa DSM 1117): >128 µg/mL
- minimum inhibitory concentrations (MICs) (S. aureus CIP 103429): 4 to 8 µg/mL
- minimum inhibitory concentrations (MICs) (E. faecalis CIP 103214): 8 µg/mL (≈ 19.3 µM)
- minimum inhibitory concentrations (MICs) (SAAM 12): 4 µg/mL (≈ 9.65 µM)
- minimum inhibitory concentrations (MICs) (SAAM 27): 4 µg/mL (≈ 9.65 µM)
- minimum inhibitory concentrations (MICs) (SAAM 51): 4 µg/mL (≈ 9.65 µM)
- minimum inhibitory concentrations (MICs) (SAAM 64): >128 µg/mL
- minimum inhibitory concentrations (MICs) (SAAM 69): 8 µg/mL (≈ 19.3 µM)
- minimum inhibitory concentrations (MICs) (SAAM 86): 8 µg/mL (≈ 19.3 µM)
- minimum inhibitory concentrations (MICs) (SAAM 95): 4 µg/mL (≈ 9.65 µM)
- minimum inhibitory concentrations (MICs) (SAAM 98): 8 µg/mL (≈ 19.3 µM)

SMILES: O[C@H](c1cc(C(F)(F)F)nc2c(C(F)(F)F)cccc12)[C@@H]1CCCCN1 (single isomer, unassigned) [(+)-enantiomer of the mefloquine]
- more potent than the (-)-enantiomer by a factor [3]: 1.69
- binding to CNS adenosine receptors (CNS adenosine receptors): without significant activity

SMILES: CCCCCCNC[C@@H](O)c1cc(C(F)(F)F)nc2c(C(F)(F)F)cccc12 [Compound 1i, (S)-1-(2,8-bis(trifluoromethyl)quinolin-4-yl)-2-(hexylamino)ethanol]
- IC50 [1]: 9.4 nM
- IC50 [2]: 14.5 nM
- minimum inhibitory concentrations (MICs) (E. coli DSM 1103): >128 µg/mL
- minimum inhibitory concentrations (MICs) (P. aeruginosa DSM 1117): >128 µg/mL
- minimum inhibitory concentrations (MICs) (S. aureus CIP 103429): 4 to 8 µg/mL
- minimum inhibitory concentrations (MICs) (E. faecalis CIP 103214): 4 to 8 µg/mL
- minimum inhibitory concentrations (MICs) (SAAM 12): 2 µg/mL (≈ 4.9 µM)
- minimum inhibitory concentrations (MICs) (SAAM 27): 2 µg/mL (≈ 4.9 µM)
- minimum inhibitory concentrations (MICs) (SAAM 51): 2 µg/mL (≈ 4.9 µM)
- minimum inhibitory concentrations (MICs) (SAAM 64): 4 µg/mL (≈ 9.79 µM)
- minimum inhibitory concentrations (MICs) (SAAM 69): 4 µg/mL (≈ 9.79 µM)
- minimum inhibitory concentrations (MICs) (SAAM 86): 8 µg/mL (≈ 19.6 µM)
- minimum inhibitory concentrations (MICs) (SAAM 95): 2 µg/mL (≈ 4.9 µM)
- minimum inhibitory concentrations (MICs) (SAAM 98): 8 µg/mL (≈ 19.6 µM)

SMILES: O[C@H](c1cc(C(F)(F)F)nc2c(C(F)(F)F)cccc12)[C@@H]1CCCCN1 (relative stereo) [MQ, (±)-(R*,S*)-α-2-piperidinyl-2,8-bis(trifluoromethyl)-4-quinolinemethanol, reference compound]
- IC50 [1]: 26.5 nM
- IC50 [2]: 52.2 nM
- minimum inhibitory concentrations (MICs) (E. coli DSM 1103): 64 µg/mL (≈ 169 µM)
- minimum inhibitory concentrations (MICs) (P. aeruginosa DSM 1117): >128 µg/mL
- minimum inhibitory concentrations (MICs) (S. aureus CIP 103429): 16 to 32 µg/mL
- minimum inhibitory concentrations (MICs) (E. faecalis CIP 103214): 16 to 32 µg/mL
- minimum inhibitory concentrations (MICs) (SAAM 12): 16 µg/mL (≈ 42.3 µM)
- minimum inhibitory concentrations (MICs) (SAAM 27): 16 µg/mL (≈ 42.3 µM)
- minimum inhibitory concentrations (MICs) (SAAM 51): 16 µg/mL (≈ 42.3 µM)
- minimum inhibitory concentrations (MICs) (SAAM 64): 32 µg/mL (≈ 84.6 µM)
- minimum inhibitory concentrations (MICs) (SAAM 69): 16 µg/mL (≈ 42.3 µM)
- minimum inhibitory concentrations (MICs) (SAAM 86): 16 µg/mL (≈ 42.3 µM)
- minimum inhibitory concentrations (MICs) (SAAM 95): 16 µg/mL (≈ 42.3 µM)
- minimum inhibitory concentrations (MICs) (SAAM 98): 32 µg/mL (≈ 84.6 µM)

SMILES: O[C@@H](c1cc(C(F)(F)F)nc2c(C(F)(F)F)cccc12)[C@H]1CCCCN1 (single isomer, unassigned) [(-)-enantiomer of mefloquine]
- binding to CNS adenosine receptors (CNS adenosine receptors): binds to CNS adenosine receptors

SMILES: CCCCCCNC[C@H](O)c1cc(C(F)(F)F)nc2c(C(F)(F)F)cccc12 [Compound 1d, (R)-1-(2,8-bis(trifluoromethyl)quinolin-4-yl)-2-(hexylamino)ethanol]
- IC50 [1]: 142 nM
- IC50 [2]: 205 nM
- minimum inhibitory concentrations (MICs) (E. coli DSM 1103): 16 µg/mL (≈ 39.2 µM)
- minimum inhibitory concentrations (MICs) (P. aeruginosa DSM 1117): >128 µg/mL
- minimum inhibitory concentrations (MICs) (S. aureus CIP 103429): 4 to 8 µg/mL
- minimum inhibitory concentrations (MICs) (E. faecalis CIP 103214): 4 to 8 µg/mL
- minimum inhibitory concentrations (MICs) (SAAM 12): 4 µg/mL (≈ 9.79 µM)
- minimum inhibitory concentrations (MICs) (SAAM 27): 4 µg/mL (≈ 9.79 µM)
- minimum inhibitory concentrations (MICs) (SAAM 51): 4 µg/mL (≈ 9.79 µM)
- minimum inhibitory concentrations (MICs) (SAAM 64): 4 µg/mL (≈ 9.79 µM)
- minimum inhibitory concentrations (MICs) (SAAM 69): 4 µg/mL (≈ 9.79 µM)
- minimum inhibitory concentrations (MICs) (SAAM 86): 4 µg/mL (≈ 9.79 µM)
- minimum inhibitory concentrations (MICs) (SAAM 95): 4 µg/mL (≈ 9.79 µM)
- minimum inhibitory concentrations (MICs) (SAAM 98): 4 µg/mL (≈ 9.79 µM)

From patent publication EP2487157A1, “Enantioselective synthesis method of 4-aminoalcoholquinoline derivatives and the use” (Université de Picardie Jules Verne, priority 2011, dated 2012)
